Like-named read-outs stand apart in the source and are kept apart here.
Assays:
polyamine transporter [1] = details: ZR-75-1 cells; compound as its own substrate; read-out: Km, spermidine transport; cited from earlier work
ZR-75-1 cells [2] = details: background; cited from earlier work
ZR-75-1 cells [3] = assay: Reversal of DFMO-induced growth inhibition by exogenous spermidine; assay type: cell-based, human; details: 11 days
Method: Effect of Inhibitors on Cell Proliferation--For growth studies, ZR-75-1 cells were cultured in MEZR medium or in phenol red-free RPMI 1640 supplemented with 2 mM L-glutamine, 1 mM sodium pyruvate, 15 mM Hepes, antibiotics, 1 nM 17β-estradiol, 0.5 μg of bovine insulin per ml and 5% (v/v) charcoal-treated fetal bovine serum (SD medium), as indicated in the text. When polyamines or polyamine analogs were added to serum-containing media, 1 mM aminoguanidine was added to inhibit bovine serum amine oxidase (BSAO) activity (Morgan, D. M. L. 1989. in The Physiology of Polyamines (Bachrach, U., and Helmer, Y. M. eds) Vol. I, pp. 203-229, CRC Press, Boca Raton). The effect of the transport inhibitors on cell growth was measured by incubating ZR-75-1 cells for 11 days in medium supplemental with antagonist, polyamines and/or 1 mM DFMO as indicated, followed by colorimetric determination of DNA content with 3,5-diaminobenzaic acid (Simard, J., Dauvois, S., Haagensen, D. E., Levesque, C., Merand, Y. and Labrie, F. 1990. Endocrinology 126: 3223-3231). Medium was changed every other day in these experiments because of the slow reaction of the compound with an unknown component present in the IMEM and RPMI 1640 medium formulation.

[4] = secondary amino group of the spermine head; cited from earlier work
polyamine transporter [5] = assay: Spermidine uptake ([3H]spermidine) in ZR-75-1 cells; assay type: cell-based, human; details: FIG. 3
Method: (§1) J. Biol. […] Endocrinology 126: 3223-3231). […] Cell cultures were then washed twice with 1 ml PBS containing 5.7 mM sym-norspermidine. Cells were then lysed with 200-μl aliquot of 1 N NaOH and incubated for 30 minutes at 60° C. After neutralization with 200 μl of 1 N HCl, radioactivity was determined from a 250-μl of the cell lysate by scintillation counting. Uptake activity was expressed per amount of total cellular protein as determined by the method of Bradford (Bradford, M. M. 1976. Anal. Biochem. 72: 248-254). Non-specific binding of radioactive substrate was similarly determined in parallel for both cell lines after a 15 second-incubation with 400 μl of ice-cold uptake solution. […] Km, Ki and Vmax values were then estimated by Line-weaver-Burke analysis. For competitive inhibitors, Ki values were also estimated by measuring uptake activity in the presence of logarithmically increasing concentrations of antagonist, and using the Cheng-Prusoff equation (Cheng. Y. -C. and Prusoff, W. H. 1973. Biochem. Pharmacol. 22: 3099-3108) by iterative curve fitting for a sigmoidal curve. For mixed competitive/noncompetitive inhibition, two methods were used to calculate kinetic constants. […] C. 1976. Enzymes, 3rd Ed., Academic Press, San Diego, Calif.). […] C. 1976. Enzymes, 3rd Ed., Academic Press, San Diego, Calif.).

ZR-75-1 cells [6] = assay: Effect of inhibitors on cell proliferation (11 days, DNA content); assay type: cell-based, human; details: 11 days
Method: Effect of Inhibitors on Cell Proliferation--For growth studies, ZR-75-1 cells were cultured in MEZR medium or in phenol red-free RPMI 1640 supplemented with 2 mM L-glutamine, 1 mM sodium pyruvate, 15 mM Hepes, antibiotics, 1 nM 17β-estradiol, 0.5 μg of bovine insulin per ml and 5% (v/v) charcoal-treated fetal bovine serum (SD medium), as indicated in the text. […] M. L. 1989. in The Physiology of Polyamines (Bachrach, U., and Helmer, Y. M. eds) Vol. I, pp. 203-229, CRC Press, Boca Raton). […] Endocrinology 126: 3223-3231). Medium was changed every other day in these experiments because of the slow reaction of the compound with an unknown component present in the IMEM and RPMI 1640 medium formulation.

polyamine transporter [7] = details: ZR-75-1 cells; compound as its own substrate; read-out: Km, spermine transport; cited from earlier work
polyamine transporter [8] = assay: Putrescine uptake ([3H]putrescine) in ZR-75-1 cells; assay type: cell-based, human; details: FIG. 3
Method: as §1

Row | SMILES | Km (polyamine transporter [1]) | Concentration completely reversing DFMO-induced growth inhibition (ZR-75-1 cells [2]) | Concentration completely reversing growth inhibition by 1 mM DFMO (ZR-75-1 cells [3]) | Inhibition of cell proliferation (ZR-75-1 cells [3]; concentrations superior to 0.3 μM, FIG. 8) | pKa [4] | Ability to compete against [3H]spermidine uptake, fold higher than that of DESC (polyamine transporter [5]) | Effect on cell growth (ZR-75-1 cells [6]; 50 μM) | Influence of 1 mM aminoguanidine on the growth effect of the compound (ZR-75-1 cells [6]; spermine 50 μM, MESC 200 μM, DEASC 50 μM) | Km (polyamine transporter [7]) | Ability to compete against [3H]putrescine uptake, fold higher than that of DESC (polyamine transporter [8])
1 | NCCCCNCCCN [Spermidine, N-[3-aminopropyl]-1,4-diaminobutane] | 0.49 ± 0.15 µM | 300 nM | 0.3 µM | up to 20% |  |  |  |  |  | 
2 | NCCCNCCCCNCCCN [Spermine, N,N'-bis-[3-aminopropyl]-1,4-butane-diamine, reference compound] |  |  |  |  | 8.9-9.8 | about 7 fold | acutely cytotoxic | only partly prevented by aminoguanidine | 0.2 ± 0.06 µM | about 7 fold

Source: patent publication US6083496A, “Polyamine transport inhibitors” (priority 1996, dated 2000)
